From patent US20090004207A1, “Methods and Compositions for Inhibiting Pathological Angiogenesis in the Eye” (priority 2007, published 2009)

Assays:
[1] = test system: human COX-2 promoter (phPES2); assay: Human COX-2 promoter (phPES2) luciferase reporter activity in EOMA cells; type: cell-based; conditions: mouse hemangioendothelioma cells (EOMA); 100 nM for 5 hours
Protocol: Cells transfected with phPES2(−1432/+59) luciferase reporter were treated with PMA (100 nM, positive control). Results from one representative experiment is shown (*P<0.01, […], n=4).
EOMA cultures (3×10^5 cells/well) on 6-well plate were grown one day before the transfection. To measure transfection efficiency, cells were co-transfected with pCMV-βgal. For each well, 0.3 μg of the luciferase reporter vector phPES2(−1432/+59), 0.3 μg of the gene of interest (pcDNA3.1-S1p2 or pcDNA3.1-S1p1) and 25 ng of pCMV-βgal mixed with Lipofectin 2000 (Invitrogen) were introduced into the cells as described by the manufacturer. 24 hours after transfection, cells were treated with PMA (100 nm) for 5 hours, if necessary. Cells were harvested and luciferase and β-galactosidase activity were determined with Luciferase assay system (Promega) and Western-light and western-star system (Applied Biosystems) respectively. The amount of plasmid DNA was made constant by adding pcDNA 3.1 and luciferase activity was normalized to μg of protein content.
In addition, it was tested if S1P2 receptor can induce the transcription of the COX-2 gene. For this experiment, the human COX-2 promoter (phPES2) driven reporter activity was measured in transfected endothelial cells. […]

[2] = test system: Bovine retinal endothelial cells; assay: Boyden chamber cell migration assay, S1P-stimulated; type: cell-based; conditions: 1 μM, S1P 100 nM
Protocol: Bovine retinal endothelial cells were tested to see if JTE013, a specific S1P2 receptor antagonist, would influence normal endothelial cell functions, such as cell migration stimulated by S1P. […] In contrast, VPC44116, a specific inhibitor of S1P1 receptor blocked normal endothelial cell migration stimulated by S1P in these cells.

Row | SMILES | induction of phPES2 (−1432/+59) promoter activity [1] [fold] | endothelial cell migration stimulated by S1P [2]
1 | CCCCCCCCCCCCCC(=O)O[C@@H]1[C@@H](C)[C@@]2(O)[C@@H](C=C(CO)C[C@]3(O)C(=O)C(C)=C[C@@H]23)[C@@H]2C(C)(C)[C@]12OC(C)=O [PMA] | 1.83 | 
2 | CCCCCCCCc1cccc(NC(=O)[C@H](N)CCP(=O)(O)O)c1 [VPC44116] |  | blocked
